From US20230017045A1, “PYRIDINE AND PYRIMIDINE CARBOXYLATE HERBICIDES AND METHODS OF USE THEREOF” (Dow AgroSciences LLC, priority 2017, published 2023)

What follows are compounds tested on test plant species (assay: Post-emergent herbicidal activity test (greenhouse, foliar spray, visual growth reduction)). Conditions: post-emergence, 336 h, ALOMY: blackgrass (Alopecurus myosuroides), 140 g ai/ha, 14 days after application, read-out: Visual Growth Reduction (%) 14 Days After Application, ALOMY.
Type: in vivo
Procedure, shortened: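 Greenhouse plants at first–second true leaf stage sprayed overhead at 187 L/ha with compound in acetone/water/isopropanol/DMSO/crop oil/X-77 carrier; controls received solvent blank. Injury rated visually after 14 d on a 0–100% scale versus untreated and control plants, converted to growth reduction.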

Question: With `COC(=O)c1nc(-c2ccc(SC(F)(F)F)cc2Cl)ccc1Cl` [F90, Methyl 3-chloro-6-(2-chloro-4-((trifluoromethyl)thio)phenyl) picolinate] as the compound, how does the pest or weed control at 140 g/ha read?
Answer: The pest or weed control at 140 g/ha was 0 to 29%.

Question: For `COC(=O)c1nc(-c2ccc(Cl)c(C)c2Cl)ccc1Cl` [F48, Methyl 3-chloro-6-(2,4-dichloro-3-methylphenyl) picolinate], which pest or weed control at 140 g/ha is on record?
Answer: The pest or weed control at 140 g/ha was 0 to 29%.

Same assay, conditions: post-emergence, 336 h, AMARE: redroot pigweed (Amaranthus retroflexus), 140 g ai/ha, 14 days after application, read-out: Visual Growth Reduction (%) 14 Days After Application, AMARE

Question: How did the pest or weed control at 140 g/ha turn out when `COC(=O)c1nc(-c2ccc(SC(F)(F)F)cc2Cl)ccc1Cl` [F90, Methyl 3-chloro-6-(2-chloro-4-((trifluoromethyl)thio)phenyl) picolinate] was run?
Answer: The pest or weed control at 140 g/ha was 75 to 84%.

Question: `COC(=O)c1nc(-c2ccc(Cl)c(C)c2Cl)ccc1Cl` [F48, Methyl 3-chloro-6-(2,4-dichloro-3-methylphenyl) picolinate] was tested. Which pest or weed control at 140 g/ha did it give?
Answer: Its pest or weed control at 140 g/ha is 60 to 74%.

Same assay, conditions: post-emergence, 336 h, AVEFA: wild oat (Avena fatua), 140 g ai/ha, 14 days after application, read-out: Visual Growth Reduction (%) 14 Days After Application, AVEFA

Question: With `COC(=O)c1nc(-c2ccc(SC(F)(F)F)cc2Cl)ccc1Cl` [F90, Methyl 3-chloro-6-(2-chloro-4-((trifluoromethyl)thio)phenyl) picolinate] as the compound, how does the pest or weed control at 140 g/ha read?
Answer: The pest or weed control at 140 g/ha was 0 to 29%.

Question: `COC(=O)c1nc(-c2ccc(Cl)c(C)c2Cl)ccc1Cl` [F48, Methyl 3-chloro-6-(2,4-dichloro-3-methylphenyl) picolinate] was tested. Which pest or weed control at 140 g/ha did it give?
Answer: The pest or weed control at 140 g/ha was 0 to 29%.

Same assay, conditions: post-emergence, 336 h, CHEAL: lambsquarters (Chenopodium album), 140 g ai/ha, 14 days after application, read-out: Visual Growth Reduction (%) 14 Days After Application, CHEAL

Question: With `COC(=O)c1nc(-c2ccc(SC(F)(F)F)cc2Cl)ccc1Cl` [F90, Methyl 3-chloro-6-(2-chloro-4-((trifluoromethyl)thio)phenyl) picolinate] as the compound, how does the pest or weed control at 140 g/ha read?
Answer: Its pest or weed control at 140 g/ha is 75 to 84%.

Question: `COC(=O)c1nc(-c2ccc(Cl)c(C)c2Cl)ccc1Cl` [F48, Methyl 3-chloro-6-(2,4-dichloro-3-methylphenyl) picolinate] was tested. Which pest or weed control at 140 g/ha did it give?
Answer: Its pest or weed control at 140 g/ha is 95 to 100%.

Same assay, conditions: post-emergence, 336 h, CIRAR: canada thistle (Cirsium arvense), 140 g ai/ha, 14 days after application, read-out: Visual Growth Reduction (%) 14 Days After Application, CIRAR

Question: `COC(=O)c1nc(-c2ccc(SC(F)(F)F)cc2Cl)ccc1Cl` [F90, Methyl 3-chloro-6-(2-chloro-4-((trifluoromethyl)thio)phenyl) picolinate] was tested. Which pest or weed control at 140 g/ha did it give?
Answer: Its pest or weed control at 140 g/ha is 85 to 94%.

Question: For `COC(=O)c1nc(-c2ccc(Cl)c(C)c2Cl)ccc1Cl` [F48, Methyl 3-chloro-6-(2,4-dichloro-3-methylphenyl) picolinate], which pest or weed control at 140 g/ha is on record?
Answer: Its pest or weed control at 140 g/ha is 0 to 29%.

Same assay, conditions: post-emergence, 336 h, CYPES: yellow nutsedge (Cyperus esculentus), 140 g ai/ha, 14 days after application, read-out: Visual Growth Reduction (%) 14 Days After Application, CYPES

Question: `COC(=O)c1nc(-c2ccc(SC(F)(F)F)cc2Cl)ccc1Cl` [F90, Methyl 3-chloro-6-(2-chloro-4-((trifluoromethyl)thio)phenyl) picolinate] was tested. Which pest or weed control at 140 g/ha did it give?
Answer: The pest or weed control at 140 g/ha was 0 to 29%.

Question: Which pest or weed control at 140 g/ha does the source give for `COC(=O)c1nc(-c2ccc(Cl)c(C)c2Cl)ccc1Cl` [F48, Methyl 3-chloro-6-(2,4-dichloro-3-methylphenyl) picolinate] here?
Answer: Its pest or weed control at 140 g/ha is 0 to 29%.

Same assay, conditions: post-emergence, 336 h, DIGSA: crabgrass (Digitaria sanguinalis), 140 g ai/ha, 14 days after application, read-out: Visual Growth Reduction (%) 14 Days After Application, DIGSA

Question: Which pest or weed control at 140 g/ha does the source give for `COC(=O)c1nc(-c2ccc(SC(F)(F)F)cc2Cl)ccc1Cl` [F90, Methyl 3-chloro-6-(2-chloro-4-((trifluoromethyl)thio)phenyl) picolinate] here?
Answer: Its pest or weed control at 140 g/ha is 60 to 74%.

Question: For `COC(=O)c1nc(-c2ccc(Cl)c(C)c2Cl)ccc1Cl` [F48, Methyl 3-chloro-6-(2,4-dichloro-3-methylphenyl) picolinate], which pest or weed control at 140 g/ha is on record?
Answer: The pest or weed control at 140 g/ha was 0 to 29%.

Same assay, conditions: post-emergence, 336 h, ECHCG: barnyardgrass (Echinochloa crus-galli), 140 g ai/ha, 14 days after application, read-out: Visual Growth Reduction (%) 14 Days After Application, ECHCG

Question: How did the pest or weed control at 140 g/ha turn out when `COC(=O)c1nc(-c2ccc(SC(F)(F)F)cc2Cl)ccc1Cl` [F90, Methyl 3-chloro-6-(2-chloro-4-((trifluoromethyl)thio)phenyl) picolinate] was run?
Answer: Its pest or weed control at 140 g/ha is 0 to 29%.

Question: For `COC(=O)c1nc(-c2ccc(Cl)c(C)c2Cl)ccc1Cl` [F48, Methyl 3-chloro-6-(2,4-dichloro-3-methylphenyl) picolinate], which pest or weed control at 140 g/ha is on record?
Answer: Its pest or weed control at 140 g/ha is 0 to 29%.

Same assay, conditions: post-emergence, 336 h, IPOHE: ivy-leaf morning glory (Ipomoea hederacea), 140 g ai/ha, 14 days after application, read-out: Visual Growth Reduction (%) 14 Days After Application, IPOHE

Question: For `COC(=O)c1nc(-c2ccc(SC(F)(F)F)cc2Cl)ccc1Cl` [F90, Methyl 3-chloro-6-(2-chloro-4-((trifluoromethyl)thio)phenyl) picolinate], which pest or weed control at 140 g/ha is on record?
Answer: The pest or weed control at 140 g/ha was 75 to 84%.

Same assay, conditions: post-emergence, 336 h, KCHSC: kochia (Bassia scoparia), 140 g ai/ha, 14 days after application, read-out: Visual Growth Reduction (%) 14 Days After Application, KCHSC

Question: For `COC(=O)c1nc(-c2ccc(SC(F)(F)F)cc2Cl)ccc1Cl` [F90, Methyl 3-chloro-6-(2-chloro-4-((trifluoromethyl)thio)phenyl) picolinate], which pest or weed control at 140 g/ha is on record?
Answer: Its pest or weed control at 140 g/ha is 30 to 44%.

Question: For `COC(=O)c1nc(-c2ccc(Cl)c(C)c2Cl)ccc1Cl` [F48, Methyl 3-chloro-6-(2,4-dichloro-3-methylphenyl) picolinate], which pest or weed control at 140 g/ha is on record?
Answer: The pest or weed control at 140 g/ha was 45 to 59%.

Same assay, conditions: post-emergence, 336 h, ORYSA: rice (Oryza sativa), 140 g ai/ha, 14 days after application, read-out: Visual Growth Reduction (%) 14 Days After Application, ORYSA

Question: How did the pest or weed control at 140 g/ha turn out when `COC(=O)c1nc(-c2ccc(SC(F)(F)F)cc2Cl)ccc1Cl` [F90, Methyl 3-chloro-6-(2-chloro-4-((trifluoromethyl)thio)phenyl) picolinate] was run?
Answer: Its pest or weed control at 140 g/ha is 0 to 29%.

Question: Which pest or weed control at 140 g/ha does the source give for `COC(=O)c1nc(-c2ccc(Cl)c(C)c2Cl)ccc1Cl` [F48, Methyl 3-chloro-6-(2,4-dichloro-3-methylphenyl) picolinate] here?
Answer: Its pest or weed control at 140 g/ha is 0 to 29%.

Same assay, conditions: post-emergence, 336 h, SETFA: giant foxtail (Setaria faberi), 140 g ai/ha, 14 days after application, read-out: Visual Growth Reduction (%) 14 Days After Application, SETFA

Question: With `COC(=O)c1nc(-c2ccc(SC(F)(F)F)cc2Cl)ccc1Cl` [F90, Methyl 3-chloro-6-(2-chloro-4-((trifluoromethyl)thio)phenyl) picolinate] as the compound, how does the pest or weed control at 140 g/ha read?
Answer: Its pest or weed control at 140 g/ha is 45 to 59%.

Question: `COC(=O)c1nc(-c2ccc(Cl)c(C)c2Cl)ccc1Cl` [F48, Methyl 3-chloro-6-(2,4-dichloro-3-methylphenyl) picolinate] was tested. Which pest or weed control at 140 g/ha did it give?
Answer: Its pest or weed control at 140 g/ha is 0 to 29%.

Same assay, conditions: post-emergence, 336 h, SORVU: grain sorghum (Sorghum vulgare), 140 g ai/ha, 14 days after application, read-out: Visual Growth Reduction (%) 14 Days After Application, SORVU

Question: `COC(=O)c1nc(-c2ccc(SC(F)(F)F)cc2Cl)ccc1Cl` [F90, Methyl 3-chloro-6-(2-chloro-4-((trifluoromethyl)thio)phenyl) picolinate] was tested. Which pest or weed control at 140 g/ha did it give?
Answer: The pest or weed control at 140 g/ha was 60 to 74%.

Question: For `COC(=O)c1nc(-c2ccc(Cl)c(C)c2Cl)ccc1Cl` [F48, Methyl 3-chloro-6-(2,4-dichloro-3-methylphenyl) picolinate], which pest or weed control at 140 g/ha is on record?
Answer: The pest or weed control at 140 g/ha was 0 to 29%.

Same assay, conditions: post-emergence, 336 h, STEME: common chickweed (Stellaria media), 140 g ai/ha, 14 days after application, read-out: Visual Growth Reduction (%) 14 Days After Application, STEME

Question: `COC(=O)c1nc(-c2ccc(SC(F)(F)F)cc2Cl)ccc1Cl` [F90, Methyl 3-chloro-6-(2-chloro-4-((trifluoromethyl)thio)phenyl) picolinate] was tested. Which pest or weed control at 140 g/ha did it give?
Answer: The pest or weed control at 140 g/ha was 0 to 29%.

Question: For `COC(=O)c1nc(-c2ccc(Cl)c(C)c2Cl)ccc1Cl` [F48, Methyl 3-chloro-6-(2,4-dichloro-3-methylphenyl) picolinate], which pest or weed control at 140 g/ha is on record?
Answer: The pest or weed control at 140 g/ha was 0 to 29%.

Same assay, conditions: post-emergence, 336 h, TRZAS: wheat, spring (Triticum aestivum), 140 g ai/ha, 14 days after application, read-out: Visual Growth Reduction (%) 14 Days After Application, TRZAS

Question: `COC(=O)c1nc(-c2ccc(SC(F)(F)F)cc2Cl)ccc1Cl` [F90, Methyl 3-chloro-6-(2-chloro-4-((trifluoromethyl)thio)phenyl) picolinate] was tested. Which pest or weed control at 140 g/ha did it give?
Answer: Its pest or weed control at 140 g/ha is 0 to 29%.

Question: Which pest or weed control at 140 g/ha does the source give for `COC(=O)c1nc(-c2ccc(Cl)c(C)c2Cl)ccc1Cl` [F48, Methyl 3-chloro-6-(2,4-dichloro-3-methylphenyl) picolinate] here?
Answer: The pest or weed control at 140 g/ha was 0 to 29%.
